The text below walks through data of PubChem BioAssay AID1259407 (Chemical Carcinogenesis Research Information System (CCRIS), 2018).

The series relates to CCRIS mutagenicity, Ames/micronucleus/aberration tests. Kind of series: CCRIS mutagenicity studies.
[1] abbreviates: Test System: AMES SALMONELLA TYPHIMURIUM, Strain/Indicator: TA98, Metabolic Activation: NONE, Method: PREINCUBATION
[2] abbreviates: Test System: AMES SALMONELLA TYPHIMURIUM, Strain/Indicator: TA100, Metabolic Activation: NONE, Method: PREINCUBATION
Setting [3] is: Test System: AMES SALMONELLA TYPHIMURIUM, Strain/Indicator: TA1535, Metabolic Activation: NONE, Method: PREINCUBATION
[4] abbreviates: Test System: AMES SALMONELLA TYPHIMURIUM, Strain/Indicator: TA1537, Metabolic Activation: NONE, Method: PREINCUBATION
The mark [5] stands for this setting: Test System: AMES SALMONELLA TYPHIMURIUM, Strain/Indicator: TA100, Metabolic Activation: NONE, Method: STANDARD PLATE.
Where [6] appears, read: Test System: AMES SALMONELLA TYPHIMURIUM, Strain/Indicator: TA98, Metabolic Activation: NONE, Method: STANDARD PLATE.
Setting [7] is: Test System: AMES SALMONELLA TYPHIMURIUM, Strain/Indicator: TA98, Metabolic Activation: RAT, LIVER, S-9, AROCLOR 1254, Method: STANDARD PLATE.
[8] abbreviates: Test System: AMES SALMONELLA TYPHIMURIUM, Strain/Indicator: TA100, Metabolic Activation: RAT, LIVER, S-9, AROCLOR 1254, Method: STANDARD PLATE.
The mark [9] stands for this setting: Test System: AMES SALMONELLA TYPHIMURIUM, Strain/Indicator: TA1535, Metabolic Activation: NONE, Method: STANDARD PLATE.
[10] abbreviates: Test System: AMES SALMONELLA TYPHIMURIUM, Strain/Indicator: TA1535, Metabolic Activation: RAT, LIVER, S-9, AROCLOR 1254, Method: STANDARD PLATE.

Molecules are shown by their SMILES. The source made the active and inactive calls. How the calls were made is not given here.

As for `COc1cc(-c2ccc(N/N=C3\C(=O)c4c(O)cc(S(=O)(=O)O)cc4C=C3S(=O)(=O)O)c(OC)c2)ccc1N/N=C1\C(=O)c2c(O)cc(S(=O)(=O)O)cc2C=C1S(=O)(=O)O`, the mutagenic call by setting is: (Test System: AMES SALMONELLA TYPHIMURIUM, Strain/Indicator: TA98, Metabolic Activation: HAMSTER, LIVER, S-9, AROCLOR 1254 (10%), Method: PREINCUBATION) “inactive; negative”; under setting [1], “inactive; negative”; (Test System: AMES SALMONELLA TYPHIMURIUM, Strain/Indicator: TA98, Metabolic Activation: RAT, LIVER, S-9, AROCLOR 1254 (10%), Method: PREINCUBATION) “inactive; negative”; (Test System: AMES SALMONELLA TYPHIMURIUM, Strain/Indicator: TA100, Metabolic Activation: HAMSTER, LIVER, S-9, AROCLOR 1254 (10%), Method: PREINCUBATION) “inactive; negative”; under setting [2], “inactive; negative”; (Test System: AMES SALMONELLA TYPHIMURIUM, Strain/Indicator: TA100, Metabolic Activation: RAT, LIVER, S-9, AROCLOR 1254 (10%), Method: PREINCUBATION) “inactive; negative”. In addition, the mutagenic call (Test System: AMES SALMONELLA TYPHIMURIUM, Strain/Indicator: TA1535, Metabolic Activation: HAMSTER, LIVER, S-9, AROCLOR 1254 (10%), Method: PREINCUBATION) is “inactive; negative”; the mutagenic call under setting [3] was “inactive; negative”; the mutagenic call (Test System: AMES SALMONELLA TYPHIMURIUM, Strain/Indicator: TA1535, Metabolic Activation: RAT, LIVER, S-9, AROCLOR 1254 (10%), Method: PREINCUBATION) is “inactive; negative”; the mutagenic call (Test System: AMES SALMONELLA TYPHIMURIUM, Strain/Indicator: TA1537, Metabolic Activation: HAMSTER, LIVER, S-9, AROCLOR 1254 (10%), Method: PREINCUBATION) was “inactive; negative”; the mutagenic call under setting [4] was “inactive; negative”; the mutagenic call (Test System: AMES SALMONELLA TYPHIMURIUM, Strain/Indicator: TA1537, Metabolic Activation: RAT, LIVER, S-9, AROCLOR 1254 (10%), Method: PREINCUBATION) is “inactive; negative”. The mutagenic call (Test System: AMES SALMONELLA TYPHIMURIUM, Strain/Indicator: TA1538, Metabolic Activation: RAT, LIVER, S-9, AROCLOR 1254, Method: STANDARD PLATE) is “inactive; negative”.

In the case of `O=C1OCCO1`, the mutagenic call reads like this: under setting [1], “inactive; negative”; (Test System: AMES SALMONELLA TYPHIMURIUM, Strain/Indicator: TA98, Metabolic Activation: RAT LIVER S-9, PHENOBARBITAL AND BETA-NAPHTHOFLAVONE, Method: PREINCUBATION) “inactive; negative”; under setting [2], “inactive; negative”; (Test System: AMES SALMONELLA TYPHIMURIUM, Strain/Indicator: TA100, Metabolic Activation: RAT LIVER S-9, PHENOBARBITAL AND BETA-NAPHTHOFLAVONE, Method: PREINCUBATION) “inactive; negative”; under setting [3], “inactive; negative”; (Test System: AMES SALMONELLA TYPHIMURIUM, Strain/Indicator: TA1535, Metabolic Activation: RAT LIVER S-9, PHENOBARBITAL AND BETA-NAPHTHOFLAVONE, Method: PREINCUBATION) “inactive; negative”. The mutagenic call reads like this: under setting [4], “inactive; negative”; (Test System: AMES SALMONELLA TYPHIMURIUM, Strain/Indicator: TA1537, Metabolic Activation: RAT LIVER S-9, PHENOBARBITAL AND BETA-NAPHTHOFLAVONE, Method: PREINCUBATION) “inactive; negative”; (Test System: E.COLI, Strain/Indicator: WP2UVRA/PKM101, Metabolic Activation: NONE, Method: PREINCUBATION) “inactive; negative”; (Test System: E.COLI, Strain/Indicator: WP2UVRA/PKM101, Metabolic Activation: RAT LIVER S-9, PHENOBARBITAL AND BETA-NAPHTHOFLAVONE, Method: PREINCUBATION) “inactive; negative”.

For the compound `CCCCCN1C2c3ccccc3-c3ccccc3C21` (configuration not stated), the mutagenic call under setting [5] was “active; positive”.

For the compound `Cc1cc2ccccc2c2ccc3c(c12)[C@@H]1O[C@@H]1[C@H](O)[C@H]3O`, the mutagenic call under setting [2] is “active; positive” and the mutagenic call under setting [5] was “active; positive”.

For `O=c1c(Cl)c(Cl)cnn1S(=O)(=O)c1ccccc1`, the mutagenic call is, setting by setting: under setting [6], “inactive; negative”; under setting [7], “inactive; negative”; under setting [5], “inactive; negative”; under setting [8], “inactive; negative”; under setting [9], “inactive; negative”; under setting [10], “inactive; negative”. Also, the mutagenic call runs as follows: (Test System: AMES SALMONELLA TYPHIMURIUM, Strain/Indicator: TA1537, Metabolic Activation: NONE, Method: STANDARD PLATE) “inactive; negative”; (Test System: AMES SALMONELLA TYPHIMURIUM, Strain/Indicator: TA1537, Metabolic Activation: RAT, LIVER, S-9, AROCLOR 1254, Method: STANDARD PLATE) “inactive; negative”.

As for `O=C(O)COc1ccc2ccccc2c1`, the mutagenic call was “inactive; negative” (Test System: AMES SALMONELLA TYPHIMURIUM, Strain/Indicator: TA97, Metabolic Activation: NONE, Method: STANDARD PLATE); “inactive; negative” (Test System: AMES SALMONELLA TYPHIMURIUM, Strain/Indicator: TA97, Metabolic Activation: RAT, LIVER, S-9, AROCLOR 1254, Method: STANDARD PLATE); “inactive; negative” under setting [6]; “inactive; negative” under setting [7]; “inactive; negative” under setting [5]; “inactive; negative” under setting [8]. For the same compound, the mutagenic call reads like this: under setting [9], “inactive; negative”; under setting [10], “inactive; negative”.
